Experimental data as given in patent US20030073662A1, “Regulation of cellular functions by ectopic expression of non-endogenous cell signalling receptors” (priority 1995, published 2003).
Where two headings read alike, the source gives them in different places. Positions of bridges follow the written chain, without caps; N, C: chain ends. No end group written: not given here.

Experiments:
[1] = test system: mouse TRH-R / phosphoinositide pathway in primary hepatocytes; experiment: Stimulation of inositol phosphate formation in hepatocytes from rats after in vivo transfer of the TRH-R cDNA; format: cell-based, rat
Procedure: (§1) Primary hepatocytes were exposed to the vectors AdCMV.βgal or AdCMV.mTRH-R. After 24 hr, the cells were labeled for 24 hr with myo-[^3H]inositol (myo-[2-^3H]inositol; 20 Ci/mmol, Amersham Corporation, Arlington Heights, Ill.), incubated (5 min, 37° C.) with 10 mM LiCl, stimulated (60 min, 37° C.) with methyl-TRH. The cells were then lysed, the inositol phosphates were separated by anion-exchange chromatography and the radioactivity counted. The fold stimulation of inositol phosphates formation was calculated as: (dpm in inositol phosphates ×100/dpm in lipids of stimulated cells) (dpm in inositol phosphates ×100/dpm in lipids of unstimulated cells) (35). For each dose of vector, triplicate measurements were made in hepatocytes from two different animals.
(§2) Sprague-Dawley rats (250-300 g, 3 months old, fed ad libitum) were anaesthetized with ketamine-HCl (60 mg/kg) and xylazine (5 mg/kg). The Ad vectors [AdCMV.mTRH-R, AdCMV.βgal, AdCMV.Null (the “Null” vector is similar to the other vectors except that the expression cassette contains the CMV promoter but no recombinant gene) (31)] were administered via the right external jugular vein (5×10^9 pfu, 100 μl 0.9% NaCl). The livers were recovered 5 days later.
Measurement of inositol phosphates formation was identical to that described for FIG. 3. Triplicate measurements were made from three individual animals per condition.

[2] = target: T1, mouse thyrotropin releasing hormone receptor (TRH-R) (Mus musculus, UniProt P21761); experiment: [3H]methyl-TRH binding to primary hepatocytes from rats after in vivo adenovirus-mediated transfer of the TRH-R cDNA; set-up: species or system rat
T1 construct: containing the protein-coding region of the mouse TRH-R cDNA, nucleotides 233-1462 of plasmid pBSmTRHR; expressed in transfected cells; host or cells: Primary Sprague-Dawley rat hepatocytes transduced with adenovirus AdCMV.mTRH-R, either in vitro (moi 1-100) or in vivo (i.v., hepatocytes isolated 5 days later)
Procedure: (§3) FIG. 2 illustrates the binding of methylthyrotropin releasing hormone (methyl-TRH) to hepatocytes following adenovirus-mediated in vitro transfer of the TRH-R cDNA. […] Following incubation for 24 hr with the vectors AdCMV.βgal or AdCMV.mTRH-R, the hepatocytes (10^6/well) were incubated for 60 min with [^3H]methyl-TRH (82.5 Ci/mmol, New England Nuclear-Dupont, Boston, Mass.) or [^3H]methyl-TRH plus excess unlabeled methyl-TRH (Sigma, St. Louis, Mo.). Free ligand was removed by aspirating the medium and washing the cells 5 times with 2 ml (4° C.) Hanks balanced salt solution. Cell associated radioactivity was measured by dissolving the cells with 1 ml of 0.4 N NaOH and counting. Specific binding of the [^3H]methyl-TRH was calculated as: [(dpm of [^3H]methyl-TRH)-(dpM [^3 H]methyl-TRH in the presence of unlabeled methyl-TRH)] (34). For each dose of the vector, triplicate measurements were made in hepatocytes from two different animals. The number of TRH-R receptor sites was calculated assuming a one-to-one stoichiometry of ligand to receptor and a homogeneous distribution of TRH-Rs.
as §2
FIGS. 4 and 5 are Northern analyses. Liver RNA (10 μg/lane) was evaluated with a mouse TRH-R cDNA probe (FIG. 4, lanes 1 and 2) or, as a positive control, […] cDNA (FIG. 5, lanes 3 and 4). The sizes of the transcripts are indicated. Lanes 1 and 3 (FIG. 4 and FIG. 5, respectively) are animals receiving AdCMV. βgal. […] The analysis of [^3H]methyl-TRH binding was identical to that described for FIG. 2. Triplicate measurements were made from three individual animals per condition.

[3] = test system: mouse TRH-R / phosphoinositide pathway in primary hepatocytes; experiment: Stimulation of inositol phosphate formation in hepatocytes after in vitro transfer of the TRH-R cDNA; format: cell-based, rat
Text: The replication-deficient recombinant adenovirus vectors are all E1a^−, partial E1b^−, partial E3^− based on adenovirus type 5, in which an expression cassette containing a promoter, driving the expression of a recombinant gene, is inserted at the site of the El deletion. AdCMV.mTRH-R contains an expression cassette with the cytomegalovirus early intermediate promoter/enhancer (CMV) followed by the mouse thyrotropin releasing hormone receptor (TRH-R) cDNA (30). AdCMV.βgal carries the CMV promoter and the E.coli LacZ gene [encoding β-galactosidase (βgal)] (31). The adenovirus vectors were prepared, purified, and titered as previously described (32,33). […]
as §1, with “For each dose of vector, triplicate measurements were made in hepatocytes from two different animals.” left out

[4] = test system: Sprague-Dawley rats; experiment: Modulation of serum glucose in rats after in vivo transfer of the TRH-R cDNA to the liver; set-up: species or system rat
Procedure: as §2
The vectors AdCMV.mTRH-R or AdCMV.Null (5×10^9 pfu), or saline (0.9%) as negative control (all in 100 μl) were administered to rats as described above. Five days later, the animals were anaesthetized by methoxyflurane (Pitman-Moore, Mundelein, Ill.) inhalation and the left and right external jugular veins were cannulated. After 15 min to permit stabilization, a 15 min baseline period was started, during which serum samples for glucose levels were obtained every 5 min. At “0 time” methyl-TRH (500 μg in 100 μl) or saline (0.9%, 100 μl ) was administered in one cannula and the serum samples obtained from the other cannula every 5 min for 55 min. Serum glucose levels were determined by colormetric assay (Sigma Diagnostics, St. Louis, Mo.).
The baseline glucose levels were determined for each animal as an average from −15 to 0 before administration of methyl-TRH or saline. The data are presented as the absolute change from the average baseline serum glucose level (mM) using each individual animal as its own control, and averaging the values at each time point for each group of animals. AdCMV.mTRH-R (IV)/TRH=vector administered intravenously at day 0, methyl-TRH administered at day 5, n=6 animals; AdCMV.mTRH-R(IP)/TRH=vector administered via the portal vein at day 0, methyl-TRH administered at day 5, n=5; AdCMV.Null(IV)/TRH=vector administered intravenously at day 0, methyl-TRH at day 5, n=6; saline/TRH=saline administered instead of vector at day 0, methyl-TRH at day 5, n=6; and naive/saline=nothing administered at day 0, saline at day 5, n=5. The data is presented as the mean for all animals in the group at each time point. The normal range for serum glucose Sprague-Dawley rats is 2.5 6.7 mM(36).
FIG. 9 illustrates the average change in serum glucose levels from baseline. The average change in serum glucose levels from baseline was determined for each time point from 15 to 55 min after administration of methyl-TRH or saline on day 5. The data are presented as mean±standard deviation. All statistical comparisons were made using the two-tailed Student's t-test.

[5] = target: T1, mouse thyrotropin releasing hormone receptor (TRH-R); format: binding
Procedure: as §3

[6] = hepatocytes from AdCMV.mTRH-R infected animals, not shown
[7] = read-out: Kd of methyl-TRH binding
[8] = hepatocytes uninfected or infected with control vector AdCMV.βgal

T1 sequence (P21761 whole entry): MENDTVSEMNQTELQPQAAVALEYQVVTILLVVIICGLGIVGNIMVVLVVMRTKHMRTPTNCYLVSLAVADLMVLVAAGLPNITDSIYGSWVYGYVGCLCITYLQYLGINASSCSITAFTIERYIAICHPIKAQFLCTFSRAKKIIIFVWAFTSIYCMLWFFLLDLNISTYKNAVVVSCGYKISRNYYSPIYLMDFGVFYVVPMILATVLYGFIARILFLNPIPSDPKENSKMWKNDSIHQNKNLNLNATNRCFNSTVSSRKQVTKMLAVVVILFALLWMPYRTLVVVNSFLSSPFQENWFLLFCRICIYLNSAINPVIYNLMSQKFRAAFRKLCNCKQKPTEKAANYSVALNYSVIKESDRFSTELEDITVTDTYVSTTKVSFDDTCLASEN

Compound: NC(=O)[C@@H]1CCCN1C(=O)[C@H](Cc1cnc[nH]1)NC(=O)[C@@H]1CCC(=O)N1 [TRH, thyrotropin-releasing hormone]
- fold stimulation of inositol phosphate formation above controls of no added methyl-TRH ([1]; hepatocytes from animals infected 5 days previously with AdCMV.mTRH-R): 16.9±1.8 fold
- stimulation of inositol phosphate formation ([1]; hepatocytes from uninfected animals and animals infected in vivo with AdCMV.βgal): no stimulation of inositol phosphate formation

Compound: Cn1cnc(C[C@H](NC(=O)[C@@H]2CCC(=O)N2)C(=O)N2CCC[C@H]2C(N)=O)c1 [methyl-TRH, methylthyrotropin releasing hormone]
- internalization of methyl-TRH complex [2, 6]: underwent internalization
- methyl-TRH specific binding ([2]; hepatocytes from animals receiving AdCMV.mTRH-R in vivo): high levels of methyl-TRH specific binding
- methyl-TRH specific binding ([2]; hepatocytes from naive animals or animals receiving control vector AdCMV.βgal): no specific methyl-TRH binding
- Kd [2, 7]: 2.51 ± 0.32 nM
- period of increase in formation of inositol phosphates after addition [1, 6]: at least 1 hr
- inositol phosphates formation ([3]; hepatocytes infected in vitro with AdCMV.mTRH-R, dependent on vector dose): increased amounts of inositol phosphates
- inositol phosphates formation [3, 8]: no increase in inositol phosphates
- increase in blood glucose over baseline from 15 to 55 min after administration ([4]; methyl-TRH 500 μg IV, rats given AdCMV.mTRH-R intravenously 5 days previously): 1.73 ± 0.26 mM
- change in blood glucose over baseline ([4]; methyl-TRH IV, control rats given saline (similar with AdCMV.Null) 5 days previously): small increase in blood glucose
- time of peak rise in blood glucose after administration ([4]; methyl-TRH IV, rats given AdCMV.mTRH-R intravenously 5 days previously): 15 min
- time for which elevation in blood glucose was maintained ([4]; methyl-TRH IV, rats given AdCMV.mTRH-R intravenously 5 days previously, experiment terminated at 55 min): at least 55 min
- rise in blood glucose compared with intravenous vector group ([4]; methyl-TRH IV, rats given AdCMV.mTRH-R via the portal vein 5 days previously): superimposable
- internalization of ligand-receptor complex ([5]; hepatocytes infected with AdCMV.mTRH-R, not shown): internalized
- specific binding of methyl-TRH [5, 8]: no specific binding
- Kd [5, 7]: 3.18 ± 0.39 nM

Compound: [Arg^8]vasopressin (CYFQNCPRG-NH2; disulfide 1-6; ends not checked; UniProt P01185 20-28, looked up) [positive control for rise in blood glucose]
- change in blood glucose ([4]; positive control, intravenous route, 55 min evaluation, not shown): an increase in blood glucose, followed by a decrease
